Source: patent US9499495B2, “Quinazolines and azaquinazolines as dual inhibitors of RAS/RAF/MEK/ERK and PI3K/AKT/PTEN/mTOR pathways” (Asana Biosciences, LLC, priority 2013, dated 2016)

How the values were obtained:
[1] = target: T1, PI3Kα (Homo sapiens, UniProt P42336); assay: PI3 Kinase alpha TR-FRET assay; format: biochemical
T1 construct: made in house; host or cells: SF9 cells
Method in brief: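 Purified Sf9-expressed p110/p85α (5 ng) was pre-incubated with compound and PIP2 at rt, then ATP was added (PIP2 and ATP both 40 μM) for a 30 min reaction. PIP3 was detected by TR-FRET displacement of biotin-PIP3, and IC50 was taken from dose-response curves of the 665/615 nm emission ratio.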

[2] = system: A375 cells; assay: XTT assay for cell viability, A375 cells; format: cell-based; settings: Homo sapiens, A-375, 72 h
Method in brief: (§1)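 GI50 derived by sigmoidal dose-response fitting of proliferation normalised to DMSO control (100%). Readout: A450 after 2-3 h with XTT (1 mg/ml)/PMS (25 μM), following 72 h compound treatment at 37° C., 5% CO2 of cells plated at 1000-2000 per well the previous day.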

[3] = system: RKO cells; assay: XTT assay for cell viability, RKO cells; format: cell-based; settings: Homo sapiens, 72 h
Method in brief: as §1

[4] = system: pS6RP in RKO cells; assay: In Cell Western (ICW) assay, pS6RP in RKO cells; format: cell-based; settings: Homo sapiens, 3 h treatment
Description: Cell lines A375, A2058 and RKO obtained from the ATCC as provided above, were grown, and after attaining ˜80% confluency were trypsinized, centrifuged and resuspended in fresh media. The cells were seeded at the specified density (20,000 to 50,000) in a 96-well format black-well clear bottom plate (Corning) and incubated overnight at 37° C. in a 5% CO2 incubator. The next day, compound dilutions of test compounds were prepared in 100% DMSO followed by dilutions in respective media. Treatment of test compounds was performed for 3 h at 37° C. in 5% CO2 incubator. Following 3 h drug treatment, the conditional media was discarded and the cells were washed once with cPBS (PBS containing 0.1% magnesium chloride hexahydrate and 0.1% anhydrous calcium chloride) and fixed with 4% paraformaldehyde in cPBS for 1 h at rt. After fixing, the cells were given three washes using cPBST (cPBS containing 0.1% Triton™ X-100 reagent) and then blocked using blocking solution (5% skimmed milk powder or 5% BSA prepared in cPBST) for 2 h at rt with shaking at 300 rpm. The cells were again washed thrice with cPBST and incubated with primary antibody phospho-p44/42 MAPK(Erk1/2)(Thr202/204) antibody (Cell Signaling, Catalog # 9101L), phospho S6 ribosomal protein (Cell Signaling, Catalog #4858L), phospho AKT (Thr 308) (Cell Signaling, Catalog #9275) or phospho AKT (Ser 473) (Cell Signaling, Catalog #4060L) in specified dilutions (1:500-1:2500), prepared in respective blocking solutions, in a racker overnight at 4° C. The next day, the cells were washed with 1× Delfia® wash buffer (4×1 wash) and incubated with secondary antibody (Delfia®-Eu-N1 labeled anti-rabbit antibody; PerkinElmer, Catalog #AD0105; dilutions: 1:2000 to 1:6000 in Delfia® assay buffer (PerkinElmer, Catalog #1244-111)) for 2 h at rt in the dark at 300 rpm. The cells were then given four washes with 1× Delfia® wash buffer and incubated with Wallac Delfia® Enhancement solution (100 μL; PerkinElmer, Catalog #1244-105) for 20 min at rt in the dark at 300 rpm. The fluorescence emission was then read at 615 nm with an excitation wavelength of 340 nm using a Victor V5 Fluorometer (Perkin Elmer, US). The cells were then washed once with 1×cPBS and incubated with 100 μL of 0.5 mg/mL of Hoechst 33258 dye prepared in cPBS and read at 460 nm with 355 nm excitation, thereby evaluating the correction factor.
The % inhibition for the test compounds of formula (I) (new chemical entities (NCEs)) was calculated keeping DMSO control as 0% and the IC50 values were determined using sigmoidal dose response curve fit in GraphPad Prism® v5 software.

[5] = system: pERK in RKO cells; assay: In Cell Western (ICW) assay, pERK in RKO cells; format: cell-based; settings: Homo sapiens, 3 h treatment
Method in brief: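 After a 3 h compound treatment at 37 °C, fixed RKO or A375 cells were probed for phospho-ERK1/2 (T202/Y204), phospho-S6RP or phospho-AKT T308 and detected with a Eu-tagged anti-rabbit antibody (ex 340/em 615 nm), with Hoechst signal as the cell-number correction. Inhibition was referenced to DMSO, and IC50 values came from sigmoidal dose-response curves.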

T1 sequence (P42336 whole entry, species assumed): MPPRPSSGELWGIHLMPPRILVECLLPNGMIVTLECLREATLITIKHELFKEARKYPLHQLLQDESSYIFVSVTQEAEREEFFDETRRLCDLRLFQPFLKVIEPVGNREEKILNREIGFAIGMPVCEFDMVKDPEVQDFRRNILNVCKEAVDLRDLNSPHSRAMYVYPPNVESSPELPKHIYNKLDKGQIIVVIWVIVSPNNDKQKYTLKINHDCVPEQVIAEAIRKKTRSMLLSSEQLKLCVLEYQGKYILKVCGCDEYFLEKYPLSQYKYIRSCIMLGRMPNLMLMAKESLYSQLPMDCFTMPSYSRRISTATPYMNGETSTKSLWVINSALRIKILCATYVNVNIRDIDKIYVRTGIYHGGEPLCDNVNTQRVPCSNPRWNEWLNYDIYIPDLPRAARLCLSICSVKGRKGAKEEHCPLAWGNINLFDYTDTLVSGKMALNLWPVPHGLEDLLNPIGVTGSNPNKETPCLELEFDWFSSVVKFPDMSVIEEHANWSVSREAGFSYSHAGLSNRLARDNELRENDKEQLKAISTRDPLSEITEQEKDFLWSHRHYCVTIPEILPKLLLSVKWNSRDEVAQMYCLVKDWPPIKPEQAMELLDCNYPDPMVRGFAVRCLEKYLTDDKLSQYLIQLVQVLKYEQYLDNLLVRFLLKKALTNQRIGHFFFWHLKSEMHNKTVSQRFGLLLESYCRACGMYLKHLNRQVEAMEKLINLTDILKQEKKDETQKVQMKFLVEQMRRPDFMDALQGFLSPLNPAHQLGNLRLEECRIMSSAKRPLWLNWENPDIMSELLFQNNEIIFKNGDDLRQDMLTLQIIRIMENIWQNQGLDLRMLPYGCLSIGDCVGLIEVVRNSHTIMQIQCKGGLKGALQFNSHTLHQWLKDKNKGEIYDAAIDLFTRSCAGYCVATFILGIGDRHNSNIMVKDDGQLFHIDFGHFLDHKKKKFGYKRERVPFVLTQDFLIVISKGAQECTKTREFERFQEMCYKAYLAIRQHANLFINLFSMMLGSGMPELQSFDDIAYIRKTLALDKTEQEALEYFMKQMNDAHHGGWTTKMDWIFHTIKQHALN
T1 sequence (P27986 whole entry partner, species assumed): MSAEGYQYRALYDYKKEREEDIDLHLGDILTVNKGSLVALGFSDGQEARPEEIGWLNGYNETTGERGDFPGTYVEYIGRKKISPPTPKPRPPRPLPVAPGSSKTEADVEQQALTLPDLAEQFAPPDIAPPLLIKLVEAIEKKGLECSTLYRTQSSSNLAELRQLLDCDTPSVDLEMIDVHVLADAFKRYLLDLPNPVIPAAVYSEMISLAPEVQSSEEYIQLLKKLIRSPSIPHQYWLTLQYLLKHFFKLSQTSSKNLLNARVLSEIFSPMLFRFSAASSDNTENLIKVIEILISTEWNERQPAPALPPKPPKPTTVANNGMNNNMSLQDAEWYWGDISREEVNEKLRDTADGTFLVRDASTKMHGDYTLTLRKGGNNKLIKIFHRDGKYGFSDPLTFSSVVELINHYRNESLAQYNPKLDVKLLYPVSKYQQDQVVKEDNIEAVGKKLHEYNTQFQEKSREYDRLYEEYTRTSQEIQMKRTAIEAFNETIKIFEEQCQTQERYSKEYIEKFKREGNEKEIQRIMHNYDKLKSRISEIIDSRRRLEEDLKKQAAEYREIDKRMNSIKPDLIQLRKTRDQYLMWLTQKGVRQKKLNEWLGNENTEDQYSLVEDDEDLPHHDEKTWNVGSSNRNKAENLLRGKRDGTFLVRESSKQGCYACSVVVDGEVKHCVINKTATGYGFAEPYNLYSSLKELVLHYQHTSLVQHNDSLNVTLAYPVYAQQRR

IC50 [1] [µM] | IC50 [2] [µM] | IC50 [4] [µM] | IC50 [5] [µM] | Compound | IC50 [3] [µM]
0.001 to 0.1 | 0.1 to 1 |  |  | CCCS(=O)(=O)Nc1cccc(-c2ccc3nc(-c4cnc(N)nc4)nc(N4CCOCC4)c3n2)c1F [Example 7, N-(3-(2-(2-aminopyrimidin-5-yl)-4-morpholinopyrido[3,2-d]pyrimidin-6-yl)-2-fluorophenyl)propane-1-sulfonamide] | 0.1 to 1
0.1 to 1 | 0.1 to 1 | 0.1 to 1 |  | COc1cc2nc(-c3cnc(N)nc3)nc(N3CCOCC3)c2cc1-c1cccc(NS(=O)(=O)CCCF)c1F [Example 11, N-(3-(2-(2-aminopyrimidin-5-yl)-7-methoxy-4-morpholinoquinazolin-6-yl)-2-fluorophenyl)-3-fluoropropane-1-sulfonamide] | 0.1 to 1
0.1 to 1 | 0.001 to 0.1 |  |  | CNC(=O)Nc1ccc(-c2nc(N3CCOCC3)c3cc(-c4cccc(NS(=O)(=O)CCCF)c4F)cc(OC)c3n2)cn1 [Example 39, 3-fluoro-N-(2-fluoro-3-(8-methoxy-2-(6-(3-methylureido)pyridin-3-yl)-4-morpholinoquinazolin-6-yl)phenyl)propane-1-sulfonamide] | 
0.1 to 1 | 0.001 to 0.1 | 0.1 to 1 | 0.001 to 0.1 | COc1cc(-c2cccc(NS(=O)(=O)CCCF)c2F)cc2c(N3CCOC[C@H]3C)nc(-c3cnc(N)nc3)nc12 [Example 43, (R)-N-(3-(2-(2-aminopyrimidin-5-yl)-8-methoxy-4-(3-methylmorpholino)quinazolin-6-yl)-2-fluorophenyl)-3-fluoropropane-1-sulfonamide] | 0.1 to 1
0.1 to 1 | 0.001 to 0.1 |  |  | Nc1ncc(-c2nc(N3CCOCC3)c3cc(-c4cccc(NS(=O)(=O)CCCF)c4F)cc(N4CCOCC4)c3n2)cn1 [Example 69, N-(3-(2-(2-aminopyrimidin-5-yl)-4,8-dimorpholinoquinazolin-6-yl)-2-fluorophenyl)-3-fluoropropane-1-sulfonamide] | 
0.001 to 0.1 | 0.1 to 1 |  |  | CCCS(=O)(=O)Nc1cccc(-c2ccc3nc(-c4ccc(N)nc4)nc(N4CCOCC4)c3n2)c1F [Example 86, N-(3-(2-(6-aminopyridin-3-yl)-4-morpholinopyrido[3,2-d]pyrimidin-6-yl)-2-fluorophenyl)propane-1-sulfonamide] | 0.1 to 1
0.1 to 1 | 0.1 to 1 |  |  | Cc1cc(-c2nc(N3CCOCC3)c3nc(-c4cccc(NS(=O)(=O)CCCF)c4F)ccc3n2)cnc1N [Example 90, N-(3-(2-(6-amino-5-methylpyridin-3-yl)-4-morpholinopyrido[3,2-d]pyrimidin-6-yl)-2-fluorophenyl)-3-fluoropropane-1-sulfonamide] | 
0.1 to 1 | 0.1 to 1 |  |  | Nc1ccc(-c2nc(N3CCOCC3)c3nc(-c4cccc(NS(=O)(=O)c5c(F)cccc5F)c4F)ccc3n2)cn1 [Example 95, N-(3-(2-(6-aminopyridin-3-yl)-4-morpholinopyrido[3,2-d]pyrimidin-6-yl)-2-fluorophenyl)-2,6-difluorobenzenesulfonamide] | 1 to 10
0.1 to 1 | 0.001 to 0.1 | 0.1 to 1 | 0.001 to 0.1 | C[C@@H]1COCCN1c1nc(-c2ccc(N)nc2)nc2ccc(-c3cccc(NS(=O)(=O)CCCF)c3F)nc12 [Example 96, (R)-N-(3-(2-(6-aminopyridin-3-yl)-4-(3-methylmorpholino)pyrido[3,2-d]pyrimidin-6-yl)-2-fluorophenyl)-3-fluoropropane-1-sulfonamide] | 0.1 to 1
0.001 to 0.1 | 0.1 to 1 | 0.1 to 1 |  | C[C@@H]1COCCN1c1nc(-c2cnc(N)nc2)nc2ccc(-c3cccc(NS(=O)(=O)CCCF)c3F)nc12 [Example 97, (R)-N-(3-(2-(2-aminopyrimidin-5-yl)-4-(3-methylmorpholino)pyrido[3,2-d]pyrimidin-6-yl)-2-fluorophenyl)-3-fluoropropane-1-sulfonamide] | 0.1 to 1
0.1 to 1 | 0.1 to 1 | 0.1 to 1 | 0.001 to 0.1 | O=S(=O)(CCCF)Nc1cccc(-c2ccc3nc(-c4ccc(NCCO)nc4)nc(N4CCOCC4)c3n2)c1F [Example 99, 3-fluoro-N-(2-fluoro-3-(2-(6-((2-hydroxyethyl)amino)pyridin-3-yl)-4-morpholinopyrido[3,2-d]pyrimidin-6-yl)phenyl)propane-1-sulfonamide] | 0.1 to 1
0.001 to 0.1 | 0.1 to 1 | 0.1 to 1 | 0.1 to 1 | Nc1cc(F)c(-c2nc(N3CCOCC3)c3nc(-c4cccc(NS(=O)(=O)CCCF)c4F)ccc3n2)cn1 [Example 102, N-(3-(2-(6-amino-4-fluoropyridin-3-yl)-4-morpholinopyrido[3,2-d]pyrimidin-6-yl)-2-fluorophenyl)-3-fluoropropane-1-sulfonamide] | 0.1 to 1
0.001 to 0.1 | 0.1 to 1 |  |  | Nc1cc(C(F)(F)F)c(-c2nc(N3CCOCC3)c3nc(-c4cccc(NS(=O)(=O)c5c(F)cccc5F)c4F)ccc3n2)cn1 [Example 106, N-(3-(2-(6-amino-4-(trifluoromethyl)pyridin-3-yl)-4-morpholinopyrido[3,2-d]pyrimidin-6-yl)-2-fluorophenyl)-2,6-difluorobenzenesulfonamide] | 
0.1 to 1 | 0.1 to 1 |  |  | O=S(=O)(CCCF)Nc1cccc(-c2ccc3nc(-c4ccc(NCCCO)nc4)nc(N4CCOCC4)c3n2)c1F [Example 111, 3-fluoro-N-(2-fluoro-3-(2-(6-((3-hydroxypropyl)amino)pyridin-3-yl)-4-morpholinopyrido[3,2-d]pyrimidin-6-yl)phenyl)propane-1-sulfonamide] | 
0.1 to 1 | 0.001 to 0.1 |  |  | Cc1cc(-c2cccc(NS(=O)(=O)CCCF)c2F)cc2c(N3CCOCC3)nc(-c3cnc(N)nc3)nc12 [Example 116, N-(3-(2-(2-aminopyrimidin-5-yl)-8-methyl-4-morpholinoquinazolin-6-yl)-2-fluorophenyl)-3-fluoropropane-1-sulfonamide] | 
0.001 to 0.1 | 0.1 to 1 |  |  | C[C@H]1COCCN1c1nc(-c2cnc(N)cc2F)nc2ccc(-c3cccc(NS(=O)(=O)CCCF)c3F)nc12 [Example 129, (S)-N-(3-(2-(6-amino-4-fluoropyridin-3-yl)-4-(3-methylmorpholino)pyrido[3,2-d]pyrimidin-6-yl)-2-fIuorophenyl)-3-fluoropropane-1-sulfonamide] | 
1 to 10 | 0.001 to 0.1 | 0.001 to 0.1 | 0.001 to 0.1 | COc1cc(-c2cccc(NS(=O)(=O)CCCF)c2F)cc2c(N3CCOC[C@H]3C)nc(-c3cnc(N)c(F)c3)nc12 [Example 134, (R)-N-(3-(2-(6-amino-5-fluoropyridin-3-yl)-8-methoxy-4-(3-methylmorpholino)quinazolin-6-yl)-2-fluorophenyl)-3-fluoropropane-1-sulfonamide] | 0.1 to 1
1 to 10 | 0.001 to 0.1 | 0.1 to 1 | 0.001 to 0.1 | COc1cc(-c2cccc(NS(=O)(=O)CCCF)c2F)cc2c(N3CCOC[C@H]3C)nc(-c3cnc(N)cc3F)nc12 [Example 135, (R)-N-(3-(2-(6-amino-4-fluoropyridin-3-yl)-8-methoxy-4-(3-methylmorpholino)quinazolin-6-yl)-2-fluorophenyl)-3-fluoropropane-1-sulfonamide] | 0.1 to 1
